Results: US7803992B2, “Methods and compositions for expressing an herbicide-tolerant polynucleotide” (Pioneer Hi-Bred International, Inc., priority 2005, dated 2010)

Tests used:
[1] = system: Heterozygous GAT-HRA corn; experiment: Postemergence herbicide application in greenhouse: fresh shoot weight and visual injury; type: in vivo; details: postemergence, 200 g/ha (glyphosate 3472 g ae/ha, glufosinate ammonium 1870 g/ha), mean of four replications; for pest or weed control at 200 g/ha: Zea mays, post-emergence, read-out: % Visual Injury; for pest or weed control at 200 g/ha / % Visual Injury: 0% no injury, 100% plant death; for Fresh Weight: weighed 2 weeks after treatment, untreated 98.8 g
[2] = system: GAT-HRA soybeans; experiment: Postemergence herbicide treatment of soybeans in greenhouse, visual injury; type: in vivo, soybean; details: for % Visual Injury: postemergence, glyphosate 8960, tribenuron-methyl 35, rimsulfuron 35 g/ha
Procedure: (§1) Young regenerated transgenic plants were sprayed with 1× glyphosate (1× rate of glyphosate is 1120 g/ha of glyphosate isopropylamine) to cull segregants. Four replications were performed for each treatment. Plants were then treated with various herbicides, including glyphosate and ALS-inhibitor herbicides.
(§2) Six soybean seeds from each variety to be assayed were planted 1 cm deep in 5.5 (13.97 cm) inch square plastic container of a synthetic growth medium. […] When possible, containers were thinned to two uniform plants. Non-transgenic lines were thinned to two uniform plants per container.
(§3) Results are expressed below in Table 11 as the mean of four replications.

[3] = system: Wild Type soybeans (Jack); experiment: as above; type: in vivo, soybean; details: for % Visual Injury: postemergence, glyphosate 8960, tribenuron-methyl 35, rimsulfuron 35 g/ha
Procedure: as §1, §2, §3

[4] = system: Heterozygous GAT-HRA corn; experiment: Preemergence herbicide application in greenhouse: fresh shoot weight and visual injury; type: in vivo; details: preemergence, 200 g/ha, mean of four replications; for pest or weed control at 200 g/ha: Zea mays, pre-emergence, 672 h, read-out: % Visual Injury; for pest or weed control at 200 g/ha / % Visual Injury: 0% no injury, 100% plant death; for Fresh Weight: fresh shoots weighed 4 weeks after treatment, untreated 47.0 g
[5] = system: parent elite stiff stalk inbred corn; experiment: Postemergence herbicide application in greenhouse: fresh shoot weight and visual injury; type: in vivo; details: postemergence, 200 g/ha (glyphosate 3472 g ae/ha, glufosinate ammonium 1870 g/ha), mean of four replications; for pest or weed control at 200 g/ha: Zea mays, post-emergence, read-out: % Visual Injury; for pest or weed control at 200 g/ha / % Visual Injury: 0% no injury, 100% plant death; for Fresh Weight: weighed 2 weeks after treatment, untreated 76.4 g
[6] = system: STS ® soybeans; experiment: Postemergence herbicide treatment of soybeans in greenhouse, visual injury; type: in vivo, soybean
Excerpt: When possible, containers were thinned to two uniform plants.

[7] = system: parent elite stiff stalk inbred corn; experiment: Preemergence herbicide application in greenhouse: fresh shoot weight and visual injury; type: in vivo; details: preemergence, 200 g/ha, mean of four replications; for pest or weed control at 200 g/ha: Zea mays, pre-emergence, 672 h, read-out: % Visual Injury; for pest or weed control at 200 g/ha / % Visual Injury: 0% no injury, 100% plant death; for Fresh Weight: fresh shoots weighed 4 weeks after treatment, untreated 36.7 g

COC(=O)c1ccccc1S(=O)(=O)NC(=O)N(C)c1nc(C)nc(OC)n1 [Tribenuron-methyl]
pest or weed control at 200 g/ha [1]: 8% | Fresh Weight [1]: 90.8 g | damage from herbicide treatment ([2]; 35 g/ha, four replications): no significant damage | % Visual Injury ([2]; event 59, mean): 59% | % Visual Injury ([2]; event 59 line 21): 58% | % Visual Injury ([2]; event 59 line 28): 60% | % Visual Injury ([2]; event 60, mean): 55% | % Visual Injury ([2]; event 60 line 07): 46% | % Visual Injury ([2]; event 60 line 11): 71% | % Visual Injury ([2]; event 60 line 22): 45% | % Visual Injury ([2]; event 60 line 35): 49% | % Visual Injury ([2]; event 60 line 41): 38% | % Visual Injury ([2]; event 60 line 46): 49% | % Visual Injury ([2]; event 60 line 70): 40% | % Visual Injury ([2]; event 60 line 75): 69% | % Visual Injury ([2]; event 60 line 77): 56% | % Visual Injury ([2]; event 60 line 79): 69% | % Visual Injury ([2]; event 60 line 82): 61% | % Visual Injury ([2]; event 60 line 84): 71% | % Visual Injury ([2]; event 61, mean): 54% | % Visual Injury ([2]; event 61 line 02): 41% | % Visual Injury ([2]; event 61 line 02B): 40% | % Visual Injury ([2]; event 61 line 05): 55% | % Visual Injury ([2]; event 61 line 14): 65% | % Visual Injury ([2]; event 61 line 18): 69% | % Visual Injury ([2]; event 61 line 24): 63% | % Visual Injury ([2]; event 61 line 33): 80% | % Visual Injury ([2]; event 61 line 34): 76% | % Visual Injury ([2]; event 61 line 47): 36% | % Visual Injury ([2]; event 61 line 49): 54% | % Visual Injury ([2]; event 61 line 51): 60% | % Visual Injury ([2]; event 61 line 60): 45% | % Visual Injury ([2]; event 61 line 62): 43% | % Visual Injury ([2]; event 61 line 99): 34% | % Visual Injury ([2]; event 64, mean): 43% | % Visual Injury ([2]; event 64 line 41): 55% | % Visual Injury ([2]; event 64 line 47): 34% | % Visual Injury ([3]; Wild Type line 82): 97% | % Visual Injury ([3]; Wild Type line Jack): 97% | % Visual Injury ([3]; Wild Type, mean): 97% | damage from herbicide treatment ([3]; herbicide-treated non-transgenic control soybeans, 35 g/ha): killed | pest or weed control at 200 g/ha [4]: 25% | Fresh Weight [4]: 46.8 g | pest or weed control at 200 g/ha [5]: 100% | Fresh Weight [5]: 1.8 g | % Visual Injury ([6]; STS ® line 25, glyphosate 8960, tribenuron-methyl 35, rimsulfuron 35 g/ha): 87% | % Visual Injury ([6]; STS ® line 46, glyphosate 8960, tribenuron-methyl 35, rimsulfuron 35 g/ha): 88% | % Visual Injury ([6]; STS ®, mean, glyphosate 8960, tribenuron-methyl 35, rimsulfuron 35 g/ha): 87% | pest or weed control at 200 g/ha [7]: 66% | Fresh Weight [7]: 32.1 g

COc1cc(OC)nc(Sc2cccc(Cl)c2C(=O)[O-])n1.[Na+] [Pyrithiobac Na^+, Pyrithiobac]
% Visual Injury [1]: 9% | Fresh Weight [1]: 87.9 g | % Visual Injury [4]: 0% | Fresh Weight [4]: 48.6 g | % Visual Injury [5]: 100% | Fresh Weight [5]: 2.8 g | % Visual Injury [7]: 100% | Fresh Weight [7]: 0.0 g

COC(=O)c1cccc(C)c1S(=O)(=O)NC(=O)Nc1nc(OCC(F)(F)F)nc(N(C)C)n1 [Triflusulfuron-methyl]
% Visual Injury [1]: 8% | Fresh Weight [1]: 110.9 g | % Visual Injury [4]: 5% | Fresh Weight [4]: 53.5 g | % Visual Injury [5]: 100% | Fresh Weight [5]: 2.1 g | % Visual Injury [7]: 100% | Fresh Weight [7]: 26.3 g

Cc1ccn2nc(S(=O)(=O)Nc3c(F)cccc3F)nc2n1 [Flumetsulam]
pest or weed control at 200 g/ha [1]: 3% | Fresh Weight [1]: 103.8 g | pest or weed control at 200 g/ha [4]: 13% | Fresh Weight [4]: 39.1 g | pest or weed control at 200 g/ha [5]: 85% | Fresh Weight [5]: 12.8 g | pest or weed control at 200 g/ha [7]: 13% | Fresh Weight [7]: 24.6 g

COc1nn(C(=O)NS(=O)(=O)c2ccccc2OC(F)(F)F)c(=O)n1C [Flucarbazone Na^+, Flucarbazone]
% Visual Injury [1]: 14% | Fresh Weight [1]: 86.0 g | % Visual Injury [4]: 40% | Fresh Weight [4]: 48.8 g | % Visual Injury [5]: 100% | Fresh Weight [5]: 3.1 g | % Visual Injury [7]: 100% | Fresh Weight [7]: 0.0 g

CCc1cnc(C2=NC(C)(C(C)C)C(=O)N2)c(C(=O)O)c1 (stereo not shown) [Imazethapyr]
pest or weed control at 200 g/ha [1]: 9% | Fresh Weight [1]: 93.4 g | pest or weed control at 200 g/ha [4]: 20% | Fresh Weight [4]: 50.0 g | pest or weed control at 200 g/ha [5]: 97% | Fresh Weight [5]: 6.4 g | pest or weed control at 200 g/ha [7]: 69% | Fresh Weight [7]: 24.4 g

COC(=O)c1ccccc1CS(=O)(=O)NC(=O)Nc1nc(OC)cc(OC)n1 [Bensulfuron-methyl]
pest or weed control at 200 g/ha [1]: 14% | Fresh Weight [1]: 103.3 g | pest or weed control at 200 g/ha [4]: 10% | Fresh Weight [4]: 39.9 g | pest or weed control at 200 g/ha [5]: 93% | Fresh Weight [5]: 9.0 g | pest or weed control at 200 g/ha [7]: 23% | Fresh Weight [7]: 28.4 g

CCOc1ccccc1OS(=O)(=O)NC(=O)Nc1nc(OC)cc(OC)n1 [Ethoxysulfuron]
pest or weed control at 200 g/ha [1]: 15% | Fresh Weight [1]: 79.3 g | pest or weed control at 200 g/ha [4]: 25% | Fresh Weight [4]: 40.0 g | pest or weed control at 200 g/ha [5]: 88% | Fresh Weight [5]: 24.3 g | pest or weed control at 200 g/ha [7]: 63% | Fresh Weight [7]: 28.1 g

COC(=O)c1ccc(C(F)(F)F)nc1S(=O)(=O)NC(=O)Nc1nc(OC)cc(OC)n1 [Flupyrsulfuron-methyl Na^+, Flupyrsulfuron-methyl]
% Visual Injury [1]: 4% | Fresh Weight [1]: 95.5 g | % Visual Injury [4]: 90% | Fresh Weight [4]: 45.8 g | % Visual Injury [5]: 95% | Fresh Weight [5]: 5.2 g | % Visual Injury [7]: 87% | Fresh Weight [7]: 23.6 g

COC(=O)c1ccc(I)cc1S(=O)(=O)NC(=O)Nc1nc(C)nc(OC)n1 [Iodosulfuron-methyl Na^+, Iodosulfuron-methyl]
% Visual Injury [1]: 1% | Fresh Weight [1]: 95.0 g | % Visual Injury [4]: 5% | Fresh Weight [4]: 52.5 g | % Visual Injury [5]: 100% | Fresh Weight [5]: 3.5 g | % Visual Injury [7]: 92% | Fresh Weight [7]: 24.4 g

Imazamethabenz-methyl
% Visual Injury [1]: 16% | Fresh Weight [1]: 95.0 g | % Visual Injury [4]: 15% | Fresh Weight [4]: 48.5 g | % Visual Injury [5]: 11% | Fresh Weight [5]: 66.9 g | % Visual Injury [7]: 61% | Fresh Weight [7]: 36.2 g
